pEC50, pIC50: −log10 of the molar value. Entries after “also recorded” stand apart in the source; their conditions may differ. Counter-ions that a name gives are not always drawn.
Columns and labels:
[1] = system: human neural stem cells (hNSCs); experiment: Neuronal differentiation of human neural stem cells (TUJ-1 staining); assay type: cell-based; details: for pEC50: agent alone, data as % of neuronal positive control, basal media subtracted; for pEC50 / effect on neuronal differentiation (in words): hNSC; for effect on neuronal differentiation (in words): TUJ-1
From the text: Mitogen-free test media with a positive control was used for neuronal differentiation, and basal media without growth factors served as a negative control.
Mitogen-free test media with a positive control for neuronal differentiation was used, and basal media without growth factors served as a negative control.
(§1) Human neural stem cells (hNSCs) were isolated and grown in monolayer culture, plated, treated with varying concentrations of buspirone in the presence or absence of the melatonin agonist melatonin, and stained with TUJ-1 antibody for the detection of neuronal differentiation or GFAP antibody for the detection of astrocyte differentiation, as described above. Mitogen-free test media with a positive control for neuronal differentiation was used along with basal media without growth factors as a negative control.
(§2) Human neural stem cells (hNSCs) were isolated and grown in monolayer culture, plated, treated with varying concentrations of a 5-HT3 antagonist and stained with TUJ-1 antibody, as described above. Mitogen-free test media with a positive control for neuronal differentiation was used along with basal media without growth factors as a negative control.
as §2, with “5-HT4 agonist” for “5-HT3 antagonist”
The presence of synergy was determined by use of a combination index (CI). […] The CI is a quantitative measure of the nature of drug interactions, comparing the EC50's of two compounds, when each is assayed alone, to the EC50 of each compound when assayed in combination. The combination index (CI) is equal to the following formula: […]
where C1 and C2 are the concentrations of a first and a second compound, respectively, resulting in 50% activity in neuronal differentiation when assayed in combination; and IC1 and IC2 are the concentrations of each compound resulting in 50% activity when assayed independently.

human mGlu3 = human mGlu3 (Homo sapiens, UniProt Q14832); details: in vitro; low nanomolar range; read-out: EC50 against human mGlu3 receptors; cited from earlier work
Sequence of human mGlu3 (Q14832 23-879): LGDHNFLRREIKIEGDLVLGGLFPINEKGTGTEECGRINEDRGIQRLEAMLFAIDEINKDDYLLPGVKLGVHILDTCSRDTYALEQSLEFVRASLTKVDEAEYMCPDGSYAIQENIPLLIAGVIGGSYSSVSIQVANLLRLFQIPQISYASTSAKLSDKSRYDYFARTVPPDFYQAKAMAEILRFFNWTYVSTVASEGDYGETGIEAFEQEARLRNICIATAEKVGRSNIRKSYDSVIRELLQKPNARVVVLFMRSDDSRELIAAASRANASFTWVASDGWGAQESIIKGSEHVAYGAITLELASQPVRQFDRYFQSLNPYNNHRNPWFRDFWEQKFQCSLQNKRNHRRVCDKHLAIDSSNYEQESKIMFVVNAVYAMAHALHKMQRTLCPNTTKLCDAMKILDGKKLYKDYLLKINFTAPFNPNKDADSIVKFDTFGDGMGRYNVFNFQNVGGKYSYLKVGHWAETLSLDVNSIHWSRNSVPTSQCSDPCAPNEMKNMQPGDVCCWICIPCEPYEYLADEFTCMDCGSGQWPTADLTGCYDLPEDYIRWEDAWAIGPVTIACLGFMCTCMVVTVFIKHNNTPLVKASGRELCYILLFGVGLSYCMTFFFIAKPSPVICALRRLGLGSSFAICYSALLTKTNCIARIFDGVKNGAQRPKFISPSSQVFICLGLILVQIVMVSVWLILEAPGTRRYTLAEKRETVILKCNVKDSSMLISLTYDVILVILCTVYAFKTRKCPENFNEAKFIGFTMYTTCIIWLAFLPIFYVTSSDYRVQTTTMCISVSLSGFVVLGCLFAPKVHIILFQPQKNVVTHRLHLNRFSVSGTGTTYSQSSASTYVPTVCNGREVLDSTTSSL

human mGlu2 = human mGlu2 (Homo sapiens, UniProt Q14416); details: in vitro; low nanomolar range; read-out: EC50 against human mGlu2 receptors; cited from earlier work
Sequence of human mGlu2 (Q14416 19-872): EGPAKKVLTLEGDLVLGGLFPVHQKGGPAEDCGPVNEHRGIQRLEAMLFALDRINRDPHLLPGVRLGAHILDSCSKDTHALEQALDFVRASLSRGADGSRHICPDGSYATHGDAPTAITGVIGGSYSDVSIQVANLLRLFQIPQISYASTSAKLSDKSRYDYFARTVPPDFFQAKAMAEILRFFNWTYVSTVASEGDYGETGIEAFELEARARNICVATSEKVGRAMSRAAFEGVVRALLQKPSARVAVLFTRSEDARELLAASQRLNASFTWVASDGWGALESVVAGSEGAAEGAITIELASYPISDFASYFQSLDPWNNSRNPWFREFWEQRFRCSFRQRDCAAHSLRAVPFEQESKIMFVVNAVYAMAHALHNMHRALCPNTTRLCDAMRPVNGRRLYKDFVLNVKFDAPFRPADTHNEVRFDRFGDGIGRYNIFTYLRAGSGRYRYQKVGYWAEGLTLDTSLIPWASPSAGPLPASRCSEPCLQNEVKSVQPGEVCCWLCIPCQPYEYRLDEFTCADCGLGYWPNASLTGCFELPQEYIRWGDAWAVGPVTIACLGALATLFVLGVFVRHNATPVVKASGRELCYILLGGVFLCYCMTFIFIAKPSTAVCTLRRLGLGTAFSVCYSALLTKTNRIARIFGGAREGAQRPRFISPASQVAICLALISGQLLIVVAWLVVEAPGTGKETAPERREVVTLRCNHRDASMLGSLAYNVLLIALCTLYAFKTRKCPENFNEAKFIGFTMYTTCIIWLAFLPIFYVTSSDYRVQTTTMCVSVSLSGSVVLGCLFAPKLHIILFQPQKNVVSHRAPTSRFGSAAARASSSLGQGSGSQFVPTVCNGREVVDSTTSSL

[2] = system: human neural stem cells (hNSCs); experiment: Astrocyte differentiation of hNSCs (GFAP staining); assay type: cell-based; details: for effect on astrocyte differentiation (in words): GFAP; for pEC50: Homo sapiens, Neural stem cell
Experimental: Experiments were carried out as described in Example 1, except the positive control for astrocyte differentiation contained mitogen-free test media with a positive control, and cells were stained with GFAP antibody.
Experiments were carried out as described in Example 2, except the positive control for astrocyte differentiation contained mitogen-free test media with a different positive control.
as §1

mGluR2 = mGluR2 (Homo sapiens, UniProt Q14416); details: read-out: IC50 against mGluR2; cited from earlier work
Sequence of mGluR2 (Q14416 19-872): as above

mGluR3 = mGluR3 (Homo sapiens, UniProt Q14832); details: read-out: IC50 against mGluR3; cited from earlier work
Sequence of mGluR3 (Q14832 23-879): as the sequence (Q14832 23-879) above

[3] = system: Group I or Group III receptors; details: sub-mM concentrations; cited from earlier work
[4] = system: granule cell layer of the dentate gyrus; experiment: In vivo neurogenesis (BrdU positive cell counts); design: species or system rat; details: 0.5 mg/kg buspirone, 3.0 mg/kg melatonin or both, i.p., 1x per day for 28 days
Experimental: BrdU was administered once daily between days 9 and 14 (100 mg/kg/day, i.p., n=12 per dose group). […] Data are presented as percent change in BrdU positive cells per cubic mm dentate gyrus.

Male F344 rats [5] = experiment: Novelty suppressed feeding (NSF) depression assay; assay type: in vivo, rat; details: 1x per day for 21 days
Experimental: Twenty-four hours prior to behavioral testing, all food is removed from the home cage. At the time of testing a single pellet is placed in the center of a novel arena. Animals are placed in the corner of the arena and latency to eat the pellet is recorded. […] Animals receive compound daily for 21 days and testing is performed on day 21. A decreased latency to eat the food pellet is indicative of both neurogenesis and antidepressant activity.
Twenty-four hours prior to behavioral testing, all food is removed from the home cage. At the time of testing a single pellet is placed in the center of a novel arena. Animals are placed in the corner of the arena and the latency (in time) to eat the pellet is recorded. […] Animals receive compound daily for 21 days and testing is performed on day 21. A decreased latency to eat the food pellet is indicative of both neurogenesis and antidepressant activity.

Male F344 rats [6] = experiment: Novel Object Recognition (NOR) cognition assay; assay type: in vivo, rat; details: fluoxetine 5 and 10 mg/kg p.o., 1x per day for 28 days
From the text: The apparatus consisted of an open field (45×45×50 cm high) made of polycarbonate. Triplicate copies were used of the objects to be discriminated. Care was taken to ensure that the pair of objects tested were made from the same material so that they could not be distinguished readily by olfactory cues although they had very different appearances.
Each test session consisted of two phases. In the initial familiarization phase, two identical objects (A1 and A2) were placed in the far corners of the box arena. A rat was then placed in the middle of the arena and allowed 15 minutes to explore both objects. Exploration of an object was defined as directing the nose to the object at a distance of less than 2 cm and/or touching it with the nose. After a delay of 48-hours the rat was re-introduced to the arena (“test phase”). The box now contained a third identical copy of the familiar object (A3) and a new object (B). These were placed in the same locations as the sample stimuli, whereby the position (left or right) of the novel object in the test phase was balanced between rats. For half the rats, object A was the sample and object B was the novel alternative. The test phase was 15 minutes in duration, with the first 30 seconds of object interaction used to determine preference scores. Any animal with less than 15 seconds of object exploration were excluded from analysis.

[7] = system: human neural stem cells (hNSC); experiment: Immunohistochemistry with neuronal and astrocyte markers (TUJ-1, GFAP, Hoechst 33342); assay type: cell-based; details: incubated with 30 μM
Experimental: Immunohistochemistry was carried out as described above using TUJ-1 as a neuronal cell marker and GFAP as an astrocyte marker. The results are shown in FIG. […] Immunohistochemistry was carried out as described in Example 3.

[8] = system: KA, AMPA, and NMDA iGlu receptors; details: cited from earlier work
[9] = agent alone, hNSC, % of astrocyte positive control, basal media subtracted

With NC(=O)N1c2ccccc2C=Cc2ccccc21 [carbemazepine] the pEC50 ([1]; Homo sapiens, Neural stem cell) was 4.80.
For N[C@@]1(C(=O)O)CO[C@H]2[C@H](C(=O)O)[C@H]21 [LY379268, (−)-2-oxa-4-aminobicyclohexane-4,6-dicarboxylic acid], the pEC50 (human mGlu3) is listed as over 8.00 and the pEC50 (human mGlu2) is listed as over 8.00.
With N[C@@H](Cc1c[nH]c2ccc(O)cc12)C(=O)O [5-HTP, 5-hydroxytryptophan] the “EC50, astrocyte differentiation” value [2, 9] was “undeterminable”, the “effect on astrocyte differentiation (in words)” value ([2]; hNSC) was “no significant increase in astrocyte differentiation above basal media values” and the pEC50 ([1]; Homo sapiens, Neural stem cell) was 4.92. For the same molecule, the “effect on neuronal differentiation (in words)” value [1] was “weakly promoted neuronal differentiation”.
Molecule CC(C)C(=O)c1c(C(C)C)nn2ccccc12 [ibudilast] has a pEC50 ([1]; Homo sapiens, Neural stem cell) of 6.14.
For NC1(C(=O)O)CCc2cc(P(=O)(O)O)ccc21 (racemic) [APICA, (RS)-1-amino-5-phosphonoindan-1-carboxylic acid], the pIC50 (mGluR2) is listed as about 4.52, the pIC50 (mGluR3) is listed as about 4.52 and the “activity against Group I or Group III receptors” value [3] is listed as “no appreciable activity”.
For COc1ccc2[nH]cc(CCNC(C)=O)c2c1 [melatonin], the pEC50 [2, 9] was under 4.50, the pEC50 ([1]; Homo sapiens, Neural stem cell) was under 4.50 and the “BrdU positive cells per cubic mm dentate gyrus (percent change)” value [4] was “did not significantly change the number of BrdU positive cells”. The “latency to eat the food pellet (percent baseline)” value (Male F344 rats [5]; 0.5 mg/kg buspirone, 3.0 mg/kg melatonin or both, i.p.) was “did not significantly reduce the latency to eat the food pellet”.
With C[C@H](CS)C(=O)N1CCC[C@H]1C(=O)O [captopril] the pEC50 ([1]; Homo sapiens, Neural stem cell) was 5.27.
For Cc1nccn1CC1CCc2c(c3ccccc3n2C)C1=O (centres unmarked) [ondansetron], the pEC50 ([1]; Homo sapiens, Neural stem cell) was 4.62 and the “effect on neuronal differentiation (in words)” value [1] was “promote differentiation of neural stem cells into neurons”.
For NCC(CC(=O)O)c1ccc(Cl)cc1 (centres unmarked) [baclofen], the pEC50 [2, 9] was under 4.50 and the pEC50 ([1]; Homo sapiens, Neural stem cell) was 5.41.
For NCCc1ccc(O)c(O)c1 [dopamine, 4-(2-aminoethyl)benzene-1,2-diol], the “neuronal differentiation, dopamine dose response” value ([1]; dopamine alone or with 10 μM or 30 μM 5-HTP) was “did not significantly enhance neuronal differentiation”.
In the case of CNCCC(Oc1ccc(C(F)(F)F)cc1)c1ccccc1 (centres unmarked) [fluoxetine], the “preference for the novel object (visits, time spent)” value (Male F344 rats [6]) was “increased both the number of visits to, and the amount of time spent with, the novel object; also recorded: dose dependent increase in preference for the novel object” and the “latency to eat the food pellet” value (Male F344 rats [5]; fluoxetine 10.0 mg/kg p.o.) was “reduced the latency to eat the food pellet”.
With Nc1nc2ncc(CNc3ccc(C(=O)N[C@@H](CCC(=O)O)C(=O)O)cc3)nc2c(=O)[nH]1 [folic acid] the pEC50 ([1]; Homo sapiens, Neural stem cell) was 5.35.
With NCC1(CC(=O)O)CCCCC1 [gabapentin] the pEC50 ([1]; Homo sapiens, Neural stem cell) was 4.94.
Work on COC(=O)C(c1ccccc1)C1CCCCN1 (centres unmarked) [methylphenidate] yielded a pEC50 ([1]; Homo sapiens, Neural stem cell) of 5.66.
With CN1C(=O)COc2c(C(=O)NC3CN4CCC3CC4)cc(Cl)cc21 (centres unmarked) [azasetron] the pEC50 [2, 9] was under 4.50, the “effect on astrocyte differentiation (in words)” value ([2]; hNSC) was “did not show a significant effect on astrocyte differentiation” and the maximum astrocyte differentiation ([2]; percent of positive control, agent alone or in combination) was 33%. For the same molecule, the “lineage of hNSC monolayer in immunofluorescent image” value [7] was “primarily of a neuronal lineage”, the pEC50 [1] was 5.24 and the “effect on neuronal differentiation (in words)” value [1] was “promote differentiation of neural stem cells into neurons”. For the same molecule, the “effect on neuronal differentiation (in words)” value ([1]; listed as Azasetron) was “significantly promoted neuronal differentiation”.
With CNS(=O)(=O)Cc1ccc2[nH]cc(CCN(C)C)c2c1 [sumatriptan] the pEC50 ([1]; Homo sapiens, Neural stem cell) was 4.83 and the “effect on neuronal differentiation (in words)” value [1] was “promotes differentiation of neural stem cells into neurons”.
In the case of CCOc1cc(N)c(Cl)cc1C(=O)NCC1CN(Cc2ccc(F)cc2)CCO1 (centres unmarked) [mosapride citrate], the pEC50 [2, 9] was under 4.50, the “effect on astrocyte differentiation (in words)” value ([2]; hNSC) was “did not show a significant effect on astrocyte differentiation” and the “lineage of hNSC monolayer in immunofluorescent image” value [7] was “primarily of a neuronal lineage”. For the same molecule, the pEC50 ([1]; Homo sapiens, Neural stem cell) was about 4.80, the pEC50 [1] was 4.98 and the “effect on neuronal differentiation (in words)” value ([1]; listed as Mosapride citrate) was “significantly promoted neuronal differentiation”. For the same molecule, the “effect on neuronal differentiation (in words)” value ([1]; listed as mosapride) was “promote differentiation of neural stem cells into neurons”.
For CN1C2CCCC1CC(NC(=O)c1nn(C)c3ccccc13)C2 (centres unmarked) [granisetron], the “effect on neuronal differentiation (in words)” value [1] was “promote differentiation of neural stem cells into neurons”.
Work on NC(=O)C[S+]([O-])C(c1ccccc1)c1ccccc1 (centres unmarked) [modafinil] yielded a pEC50 ([2]; agent alone, hNSC) of under 4.50 and a pEC50 ([1]; Homo sapiens, Neural stem cell) of 4.90.
For N[C@](CC1c2ccccc2Oc2ccccc21)(C(=O)O)[C@H]1C[C@@H]1C(=O)O [LY341495, (2S)-2-amino-2-(1S,2S-2-carboxycycloprop-1-yl)-3-(xanth-9-yl) propanoic acid], the “activity against KA, AMPA, and NMDA iGlu receptors” value [8] is given as “substantially inactive”.
With COc1ccc2cccc(CCNC(C)=O)c2c1 [agomelatine] the pEC50 ([1]; Homo sapiens, Neural stem cell) was 5.06 and the “effect on neuronal differentiation (in words)” value [1] was “promotes differentiation of neural stem cells into neurons”.
With COc1cc(N)c(Cl)cc1C(=O)NC1CCN(CCCOc2ccc(F)cc2)CC1OC (centres unmarked) [cisapride] the pEC50 ([1]; Homo sapiens, Neural stem cell) was 5.10 and the “effect on neuronal differentiation (in words)” value [1] was “promote differentiation of neural stem cells into neurons”.
Molecule O=C1CC[C@@]2(O)[C@H]3Cc4ccc(O)c5c4[C@@]2(CCN3CC2CC2)[C@H]1O5 [naltrexone] has a pEC50 ([1]; Homo sapiens, Neural stem cell) of 6.41.
O=C1[C@@H]2[C@H]3CC[C@H](C3)[C@@H]2C(=O)N1CCCCN1CCN(c2ncccn2)CC1 [tandospirone] showed a pEC50 [2, 9] of 5.06 and a pEC50 ([1]; Homo sapiens, Neural stem cell) of 4.92.

— patent publication US7678808B2, “5 HT receptor mediated neurogenesis” (BrainCells, Inc., priority 2006, dated 2010)
